Conditions: from C=CCOc1ccc(C[C@H](N)C(=O)NCc2cc(CSc3cc(SCc4cc(CNC(=O)[C@@H](N)Cc5ccc(OCC=C)cc5)cc(C(=O)Oc5c(F)c(F)c(F)c(F)c5F)c4)cc(SCc4cc(CNC(=O)[C@@H](N)Cc5ccc(OCC=C)cc5)cc(C(=O)Oc5c(F)c(F)c(F)c(F)c5F)c4)c3)cc(C(=O)Oc3c(F)c(F)c(F)c(F)c3F)c2)cc1; amide bond; N,N-diisopropylethylamine (pentafluorophenyl ester); THF; 2.3 mM; 25.0 °C; 45.0 h

SMILES: C=CCOc1ccc(C[C@@H]2NC(=O)c3cc4cc(c3)CSc3cc5cc(c3)SCc3cc(cc(c3)C(=O)N[C@@H](Cc3ccc(OCC=C)cc3)C(=O)NC4)CNC(=O)[C@H](Cc3ccc(OCC=C)cc3)NC(=O)c3cc(cc(c3)CS5)CNC2=O)cc1
- ring closure, yield of all isomers: 65%

— US5599926
